The values that follow come from patent publication US20220040255A1, “CHEMOTHERAPEUTIC REMODELING OF THE GUT MICROBIOME” (THE SCRIPPS RESEARCH INSTITUTE, priority 2018, published 2022).

Where a SMILES comes first, the peptide text is derived from it. [ ]: non-standard residue; d: D form.

The test system of assay [1] is gut microbiota from cecum of LDLr−/− mice. The assay can be described thus: in vitro en masse screening assay (cecum culture, 16S rRNA sequencing). The assay is classed as cell-based. To be noted: ranking in remodeling WD gut microbiota toward CHD microbiota composition. Here is the method:
We have established the following in vitro compound screening protocol for en masse gut microbiome remodeling. We obtain fresh gut microbiome content from LDLr^-/- mice conditioned for at least two weeks on WD by surgically removing cecum under anaerobic conditions. These samples are then mixed with growth media, distributed in 96-well plates, and incubated overnight in the presence of the test peptides. The activity and selectivity of each peptide for remodeling the gut microbiota community was assessed en masse by 16S rRNA sequencing of each well. A number of challenges had to be addressed in developing this protocol, including inoculum handling, choice of growth media, assay duration, etc. Our current assay culture condition maintains 50 bacterial genera (overnight culture), which is fairly representative of the 67 genera found in the uncultured community (Table 2). We used a distance scoring algorithm for a more refined compound selection, in which peptides that remodel the microbiota community most completely from the dysfunctional state (WD fed) toward the functional state (CHD fed) are scored higher. Briefly, we first eliminate cyclic D,L-α-peptides that have broad-spectrum antibacterial activity (inhibit >95% of growth of ≥25% of species in the community). The remaining compounds are then ranked based on how well they suppressed the bacterial species that grew in abundance in WD-fed mice. […] Among these, 40 genera decreased while 14 genera increased in abundance by WD feeding. Within the increased 11 genera, there were 19 bacterial species that were also present in our in vitro culture system. Accordingly, compounds were scored highly when they reduced the levels of 19 bacterial species (lowest summed differences in relative abundance) that were increased by WD feeding to be more similar to their levels in a CHD-fed microbiome (see Table 3 for peptide ranking). Based on these analyses, we chose two peptides for further in vivo validation and efficacy studies: the cationic peptide 1, […] NO:1), and the neutral peptide 11, […] NO:11), which ranked high within their respective peptide clusters. In vitro cecum culture and peptide screening. We screened a number of parameters to optimize the in vitro culture condition for maximal bacterial diversity in liquid culture, including a survey of several different growth media, dilution factors for plate inoculation, and incubation times; further details of the development of this in vitro screen will be reported elsewhere. Female LDLr^-/- mice (8-10 weeks of age) were fed a WD for two weeks. Cecum harvest and all assay steps were performed under anaerobic conditions (Coy Laboratory anaerobic chamber). Cecum contents from three mice were pooled for the assay to provide enough material and to minimize the individual variation in gut microbiome. Cecum contents were suspended in PBS (1.5 ml PBS per 100 mg of cecum content). The mixture was vortexed for 5 min and the supernatant was transferred to a new tube. The cecum content mixture was further diluted in Chopped Meat Carbohydrate Broth (BD 297307) for in vitro peptide screening. […] The concentration of peptide stock in DMSO was calculated based on A280 measurement. For each peptide, an initial 20 mM stock was made in DMSO and diluted to 1 mM in 10% sucrose. From that, a 0.64 mM peptide dilution in 10% sucrose was prepared, and each peptide was further diluted into the assay for peptide screening at two concentrations (64 μM and 16 μM). Bacterial DNA was harvested after 24-hour peptide treatment and isolated with Microbial DNA isolation kit (Mo Bio) following the manufacturer's instructions. 16S rRNA gene sequencing and processing. PCR amplicons of the V3-V4 16S rRNA region were amplified and sequenced using an Illumina MiSeq platform. […]

The next assay concerns gut microbiota. The experiment in a line: in vivo remodeling of the gut microbiome (feces 16S rRNA sequencing). Conditions: for overall microbiota alpha diversity: in vivo, 10-week study, peptide treatment; for time within which the Bacteroidetes/Firmicutes ratio increased relative to the vehicle WD-fed group: oral in drinking water, ~35 mg/kg/day, WD-fed LDLr−/− mice. Also noted: species or system LDLr−/− mice. Here is the method: Animals and diets. LDL receptor-null (LDLr^−/−) mice on a C57BL/6J background were initially purchased from Jackson Laboratories (Bar Harbor, Me.) and were bred in house. Unless otherwise noted, all experiments were performed with 8-12 weeks old LDLr^−/− female mice. For studies involving analysis of the gut microbiome, the mice were rotated between cages and co-housed with the mice from different groups for at least one week before the beginning of each study to reduce the variation in the composition of gut microbiome caused by the housing environment. The mice were weaned at 4 weeks of age and were fed ad libitum a standard chow diet (Harlan Teklad 7019) until they were 10-weeks old, when they were switched to a high-fat diet (WD) containing 15.8% (wt/wt) fat, 1.25% (wt/wt) cholesterol, and no cholate (Harlan Teklad 94059). At the time that the WD was started, the cyclic peptide was added to the drinking water at a dose of 180 μM and the mice (female, n=8 per dosing group) were continued on WD for 10 weeks. The lyophilized peptide was dissolved in PBS (pH 7.4) containing 1% sucrose, resulting in a clear solution. The drinking water solution was replaced with fresh solution daily for c[wLwReQeR] (SEQ ID NO:11) or every other day for c[wLwKhShK] (SEQ ID NO:1). A control group of eight mice (female, n=8) was fed WD and provided vehicle (PBS with 1% sucrose) drinking water. The mice consumed approximately 4.0 mL of water per day per mouse, and there was no significant difference in water or food consumption between groups. All procedures involving live animals were approved by the Scripps Research Institute Institutional Animal Care and Use Committee.
Feces sample collection and DNA extraction. The feces samples were freshly collected after 2, 6, and 10 weeks of treatment, snap-frozen, and stored at −80° C. Microbial genomic DNA was isolated with PowerSoil DNA isolation kit by following manufacturer's instructions (Mo Bio).
16S rRNA gene sequencing and processing. PCR amplicons of the V3-V4 16S rRNA region were amplified and sequenced using an Illumina MiSeq platform. For each sample, duplicate 25 μl PCR reactions were performed, each containing 50 ng of purified DNA, 12.5 μl 2×KAPA HiFi HotStart ReadyMix (Kapa biosystem), and 0.15 μM of each primer designed to amplify the V3-V4 region:
16S rRNA gene sequencing data analysis. We used custom python scripts to demultiplex sequencing reads based on the second barcode index and remove PCR duplication artifacts found using unique molecular identifiers prior to analyzing sequences using MOTHUR (version 1.36.1). […] Briefly, contigs were generated by combining forward and reverse paired-end reads. […] We performed a pre-clustering step to cluster reads up to 2 bp apart and removed all chimeric sequences. […]

`CC(C)C[C@@H]1NC(=O)[C@@H](Cc2c[nH]c3ccccc23)NC(=O)[C@H](CCCNC(=N)N)NC(=O)[C@@H](CCC(=O)O)NC(=O)[C@H](CCC(N)=O)NC(=O)[C@@H](CCC(=O)O)NC(=O)[C@H](CCCNC(=N)N)NC(=O)[C@@H](Cc2c[nH]c3ccccc23)NC1=O` [c[wLwReQeR]] (cyclo([dW]L[dW]R[dE]Q[dE]R)): in assay [1], the “ranked distance to chow” value was found to be 14. Besides, in the assay with gut microbiota, the “overall microbiota alpha diversity” value is “unchanged” and the “time within which the Bacteroidetes/Firmicutes ratio increased relative to the vehicle WD-fed group” value was at most 6 weeks.
The corresponding values for `CC(C)C[C@@H]1NC(=O)[C@@H](Cc2c[nH]c3ccccc23)NC(=O)[C@H](CCCCN)NC(=O)[C@@H](Cc2c[nH]cn2)NC(=O)[C@H](CO)NC(=O)[C@@H](Cc2c[nH]cn2)NC(=O)[C@H](CCCCN)NC(=O)[C@@H](Cc2c[nH]c3ccccc23)NC1=O` [c[wLwKhShK]] (cyclo([dW]L[dW]K[dH]S[dH]K)) are 2, “unchanged” and at most 2 weeks.
